Data from PubChem BioAssay (NCI).
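Five compound concentrations were applied to cells in 96-well plates for 48 hours; endpoints were derived by simple linear interpolation of the resulting dose-response curve. GI50 = concentration required for 50% inhibition of growth. Definition used: TGI = concentration required for complete inhibition of growth.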

How the values were obtained:
Assay in all cases: NCI tumour cell line growth inhibition, 48 h
OVCAR-4 ovarian = test system: OVCAR-4 ovarian
786-0 renal = test system: 786-0 renal
UO-31 renal = test system: UO-31 renal
IGROV1 ovarian = test system: IGROV1 ovarian
LOX IMVI melanoma = test system: LOX IMVI melanoma
BT-549 breast = test system: BT-549 breast
MDA-MB-231 breast = test system: MDA-MB-231 breast
M14 melanoma = test system: M14 melanoma
A498 renal = test system: A498 renal
U251 CNS = test system: U251 CNS
DU-145 prostate = test system: DU-145 prostate
RPMI-8226 leukemia = test system: RPMI-8226 leukemia
NCI-H460 lung = test system: NCI-H460 lung
OVCAR-8 ovarian = test system: OVCAR-8 ovarian
A549 NSCLC = test system: A549 NSCLC
HT29 colon = test system: HT29 colon
NCI-H522 lung = test system: NCI-H522 lung
SF-268 CNS = test system: SF-268 CNS
UACC-257 melanoma = test system: UACC-257 melanoma
RXF 393 renal = test system: RXF 393 renal
KM12 colon = test system: KM12 colon
CCRF-CEM leukemia = test system: CCRF-CEM leukemia
MALME-3M melanoma = test system: MALME-3M melanoma
SNB-19 CNS = test system: SNB-19 CNS
UACC-62 melanoma = test system: UACC-62 melanoma
HCT-15 colon = test system: HCT-15 colon
SF-295 CNS = test system: SF-295 CNS
EKVX NSCLC = test system: EKVX NSCLC
NCI/ADR-RES ovarian = test system: NCI/ADR-RES ovarian
CAKI-1 renal = test system: CAKI-1 renal
NCI-H23 lung = test system: NCI-H23 lung
MCF7 breast = test system: MCF7 breast
TK-10 renal = test system: TK-10 renal
SK-OV-3 ovarian = test system: SK-OV-3 ovarian
NCI-H226 lung = test system: NCI-H226 lung
HS 578T breast = test system: HS 578T breast
SK-MEL-2 melanoma = test system: SK-MEL-2 melanoma
T-47D breast = test system: T-47D breast
SR leukemia = test system: SR leukemia
SK-MEL-5 melanoma = test system: SK-MEL-5 melanoma
SK-MEL-28 melanoma = test system: SK-MEL-28 melanoma
COLO 205 colon = test system: COLO 205 colon
OVCAR-5 ovarian = test system: OVCAR-5 ovarian
SF-539 CNS = test system: SF-539 CNS
SW-620 colon = test system: SW-620 colon
HCC-2998 colon = test system: HCC-2998 colon
MOLT-4 leukemia = test system: MOLT-4 leukemia
ACHN renal = test system: ACHN renal
OVCAR-3 ovarian = test system: OVCAR-3 ovarian
HOP-62 NSCLC = test system: HOP-62 NSCLC
SNB-75 CNS = test system: SNB-75 CNS
HCT-116 colon = test system: HCT-116 colon
HOP-92 NSCLC = test system: HOP-92 NSCLC
HL-60(TB) leukemia = test system: HL-60(TB) leukemia
PC-3 prostate = test system: PC-3 prostate
MDA-MB-435 = test system: MDA-MB-435

## Cc1nc2cc(-n3c(-c4ccc(F)cc4)nc4ccccc4c3=O)ccc2n1Cc1ccccc1
OVCAR-4 ovarian
  GI50: 2.24 µM
  TGI: 5.26 µM
786-0 renal
  GI50: 1.86 µM
  TGI: 3.62 µM
UO-31 renal
  GI50: 2.15 µM
  TGI: 8.42 µM
IGROV1 ovarian
  GI50: 5.9 µM
  TGI: 31.2 µM
LOX IMVI melanoma
  GI50: 1.97 µM
  TGI: 4.59 µM
BT-549 breast
  GI50: 1.71 µM
  TGI: 3.48 µM
MDA-MB-231 breast
  GI50: 1.91 µM
  TGI: 5.09 µM
M14 melanoma
  GI50: 2.13 µM
  TGI: 4.62 µM
A498 renal
  GI50: 2.23 µM
  TGI: 11.6 µM
U251 CNS
  GI50: 2.19 µM
  TGI: 5.18 µM
DU-145 prostate
  GI50: 2.6 µM
  TGI: 6.95 µM
RPMI-8226 leukemia
  GI50: 5.58 µM
  TGI: 39.7 µM
NCI-H460 lung
  GI50: 2.01 µM
  TGI: 4.09 µM
OVCAR-8 ovarian
  GI50: 2.31 µM
  TGI: 6.06 µM
A549 NSCLC
  GI50: 2.02 µM
  TGI: 4.66 µM
HT29 colon
  GI50: 2.23 µM
  TGI: 4.71 µM
NCI-H522 lung
  GI50: 1.94 µM
  TGI: 6.49 µM
SF-268 CNS
  GI50: 2.83 µM
  TGI: 10.1 µM
UACC-257 melanoma
  GI50: 2.64 µM
  TGI: 6.68 µM
RXF 393 renal
  GI50: 1.89 µM
  TGI: 4.26 µM
KM12 colon
  GI50: 3.12 µM
  TGI: 15.7 µM
CCRF-CEM leukemia
  GI50: 8.34 µM
  TGI: > 100 µM
MALME-3M melanoma
  GI50: 2.36 µM
  TGI: 5.36 µM
SNB-19 CNS
  GI50: 4.57 µM
  TGI: 26.8 µM
UACC-62 melanoma
  GI50: 2.8 µM
  TGI: 9.79 µM
HCT-15 colon
  GI50: 2.94 µM
  TGI: 11.6 µM
SF-295 CNS
  GI50: 2.32 µM
  TGI: 5.73 µM
EKVX NSCLC
  GI50: 6.28 µM
  TGI: 49.9 µM
NCI/ADR-RES ovarian
  GI50: 1.85 µM
  TGI: 4.56 µM
CAKI-1 renal
  GI50: 1.89 µM
  TGI: 4.51 µM
NCI-H23 lung
  GI50: 4.23 µM
  TGI: 37.6 µM
MCF7 breast
  GI50: 2.24 µM
  TGI: 5.56 µM
TK-10 renal
  GI50: 2.73 µM
  TGI: 7.17 µM
SK-OV-3 ovarian
  GI50: 3.55 µM
  TGI: 13.8 µM
NCI-H226 lung
  GI50: 2.02 µM
  TGI: 6.51 µM
HS 578T breast
  GI50: 2.68 µM
  TGI: 8.6 µM
SK-MEL-2 melanoma
  GI50: 2.32 µM
  TGI: 8.6 µM
T-47D breast
  GI50: 1.7 µM
  TGI: 4.22 µM
SR leukemia
  GI50: 2.7 µM
  TGI: > 100 µM
SK-MEL-5 melanoma
  GI50: 2.67 µM
  TGI: 9.07 µM
SK-MEL-28 melanoma
  GI50: 2 µM
  TGI: 3.94 µM
COLO 205 colon
  GI50: 2.11 µM
  TGI: 5.1 µM
OVCAR-5 ovarian
  GI50: 5.48 µM
  TGI: 24.1 µM
SF-539 CNS
  GI50: 1.91 µM
  TGI: 3.79 µM
SW-620 colon
  GI50: 3.16 µM
  TGI: 19.2 µM
HCC-2998 colon
  GI50: > 100 µM
  TGI: > 100 µM
MOLT-4 leukemia
  GI50: 3.52 µM
  TGI: > 100 µM
ACHN renal
  GI50: 2.05 µM
  TGI: 4.63 µM
OVCAR-3 ovarian
  GI50: 2.35 µM
  TGI: 5.2 µM
HOP-62 NSCLC
  GI50: 2.44 µM
  TGI: 6.98 µM
SNB-75 CNS
  GI50: 1.49 µM
  TGI: 3.6 µM
HCT-116 colon
  GI50: 1.57 µM
  TGI: 3.39 µM
HOP-92 NSCLC
  GI50: 2.47 µM
  TGI: 8.25 µM
HL-60(TB) leukemia
  GI50: 13 µM
  TGI: > 100 µM
PC-3 prostate
  GI50: 1.96 µM
  TGI: 5.3 µM
MDA-MB-435
  GI50: 1.98 µM
  TGI: 4.21 µM
